Data as given in US20260034123A1 (Cedilla Therapeutics, Inc., priority 2022, published 2026).

How the values were obtained:
CDK2/Cyclin E1 [1] = biological target: T1, CDK2/Cyclin E1 (Homo sapiens, UniProt P24941); test: ADP-Glo Luminescent Kinase Assay (CDK2/E1-37C); assay type: biochemical; settings: 0.18 nM CDK2/Cyclin E1, 100 μM ATP, Histone H1, 37° C.; read-out: ADPGLO (CDK2/E1-37C): IC50
Method in brief: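 IC50 fitted by four-parameter equation from ADP-Glo luminescence converted to % activity. Compounds were preincubated 60 min at 37 °C with enzyme, then kinase reaction ran 90 min at 37 °C with 0.18 nM enzyme, 100 μM ATP, Histone H1 ([…]), pH 7.5 HEPES, Mg2+, DTT.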

CDK2/Cyclin E1 [2] = biological target: T1, CDK2/Cyclin E1; test: Caliper LabChip EZ Reader mobility shift assay; assay type: biochemical; settings: 2.5 nM CDK2/Cyclin E1(14-475), 100 μM ATP, 30 min preincubation; read-out: Caliper Assay (CDK2/CCNE1): IC50
Protocol: Inhibition of CDK2/Cyclin E1 activity in the presence of compounds of the present disclosure was evaluated using a Caliper LabChip® EZ Reader mobility shift assay. In the assay, activated CDK2/Cyclin E1 catalyzes the phosphorylation of a fluorescently tagged peptide 5-FAM-QSPKKG-CONH2 (PerkinElmer, FL Peptide 18) which induces a difference in capillary electrophoresis mobility. The peptide substrate and product were measured, and the conversion ratio was used to determine the inhibition (as % activity and IC50 values) of CDK2/Cyclin E1. Reactions contained 50 mM HEPES pH 7.5, 10 mM MgCl2, 1 mM EDTA, 2 mM DTT, 0.01% Brij35, 0.5 mg/mL BSA, 0.1% DMSO, 2.5 nM CDK2/Cyclin E1(14-475), 100 μM ATP, and 1.5 μM fluorescent peptide substrate.
Dose titrations of inhibitors in 100% DMSO were combined with 3.25 nM CDK2/Cyclin E1(14-475) and 130 μM of ATP in reaction buffer. The mixtures were incubated for 30 minutes before the addition of fluorescent peptide substrate to initiate the kinase reaction. The final conditions were 2.5 nM CDK2/Cyclin E1(14-475), 100 μM ATP, and 1.5 μM fluorescent peptide. The reactions were stopped after 100 minutes with the addition of EDTA (6 mM final EDTA concentration). The stopped reactions were analyzed on a Caliper LabChip® EZ Reader 11. The conversion ratios were normalized to yield % activity, plotted against compound concentration, and fit to a four-parameter equation to determine the IC50 for each compound.

Kuramochi cells RB-WT = test: IncuCyte Kuramochi cell proliferation assay, RB-WT; assay type: cell-based; settings: 72 hours, cell count
Method in brief: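 GI50 was derived by curve-fitting DMSO-normalized fold change in nuclear count between 0 and 72 h. Counts came from images of Kuramochi cells carrying mApple-H2B. Compounds were dosed over 10 points at 1/2-log spacing from a 20 µM top concentration.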

CC1(C)C[C@@H]1C(=O)N1CC2(CN(C(=O)c3cncs3)CC2COCc2cccc(-c3ccc(C(F)(F)F)cc3)c2C(=O)O)C1 (stereo partly drawn) [Compound I-4, 3-(((2-((S)-2,2-dimethylcyclopropane-1-carbonyl)-6-(thiazole-5-carbonyl)-2,6-diazaspiro[3.4]octan-8-yl)methoxy)methyl)-4′-(trifluoromethyl)-[1,1′-biphenyl]-2-carboxylic acid]
IC50 (CDK2/Cyclin E1 [1]): 0.5 to 5 µM | IC50 (CDK2/Cyclin E1 [2]): < 0.01 µM | IC50 (Kuramochi cells RB-WT): > 10 µM

COC(=O)c1c(COCC2CN(C(=O)c3cncs3)CC23CN(C(=O)[C@H]2CC2(C)C)C3)cccc1-c1ccc(C(F)(F)F)cc1 (stereo partly drawn) [Compound I-5, methyl 3-(((2-((S)-2,2-dimethylcyclopropane-1-carbonyl)-6-(thiazole-5-carbonyl)-2,6-diazaspiro[3.4]octan-8-yl)methoxy)methyl)-4′-(trifluoromethyl)-[1,1′-biphenyl]-2-carboxylate]
IC50 (CDK2/Cyclin E1 [1]): 0.5 to 5 µM | IC50 (CDK2/Cyclin E1 [2]): 0.01 to 0.1 µM | IC50 (Kuramochi cells RB-WT): 5 to 10 µM

CC1(C)C[C@@H]1C(=O)N1CC2(CN(C(=O)c3cnn(Cc4ccc(C(=O)O)cc4)c3)CC2COCc2cccc(-c3ccc(C(F)(F)F)cc3)n2)C1 (stereo partly drawn) [Compound I-6, 4-((4-(2-((S)-2,2-dimethylcyclopropane-1-carbonyl)-8-(((6-(4-(trifluoromethyl)phenyl)pyridin-2-yl)methoxy)methyl)-2,6-diazaspiro[3.4]octane-6-carbonyl)-1H-pyrazol-1-yl)methyl)benzoic acid]
IC50 (CDK2/Cyclin E1 [1]): > 10 µM | IC50 (CDK2/Cyclin E1 [2]): 1 to 10 µM | IC50 (Kuramochi cells RB-WT): > 10 µM

Cc1c(COC[C@@H]2CN(C(=O)c3cncs3)CC23CN(C(=O)[C@H]2CC2(C)C)C3)cccc1C1CCOCC1 [Compound I-31, ((S)-2-((S)-2,2-dimethylcyclopropanecarbonyl)-8-(((2-methyl-3-(tetrahydro-2H-pyran-4-yl)benzyl)oxy)methyl)-2,6-diazaspiro[3.4]octan-6-yl)(thiazol-5-yl)methanone]
IC50 (CDK2/Cyclin E1 [1]): 0.5 to 5 µM | IC50 (CDK2/Cyclin E1 [2]): 0.1 to 1 µM | IC50 (Kuramochi cells RB-WT): 5 to 10 µM

CC1(C)C[C@@H]1C(=O)N1CC2(CN(C(=O)c3cncs3)C[C@H]2COCC2CCCCO2)C1 (stereo partly drawn) [Compound I-32, ((S)-2-((S)-2,2-dimethylcyclopropane-1-carbonyl)-8-(((tetrahydro-2H-pyran-2-yl)methoxy)methyl)-2,6-diazaspiro [3.4]octan-6-yl) (thiazol-5-yl) methanone]
IC50 (CDK2/Cyclin E1 [2]): > 10 µM | IC50 (Kuramochi cells RB-WT): > 10 µM

CC1(C)C[C@@H]1C(=O)N1CC2(CN(C(=O)c3cncs3)C[C@H]2COCc2cccc(-c3ccc(C(F)(F)F)cc3F)n2)C1 [Compound I-33, ((S)-2-((S)-2,2-dimethylcyclopropane-1-carbonyl)-8-(((6-(2-fluoro-4-(trifluoromethyl)phenyl)pyridin-2-yl)methoxy)methyl)-2,6-diazaspiro[3.4]octan-6-yl)(thiazol-5-yl) methanone]
IC50 (CDK2/Cyclin E1 [2]): 0.01 to 0.1 µM | IC50 (Kuramochi cells RB-WT): 5 to 10 µM

CC1(C)C[C@@H]1C(=O)N1CC2(CN(C(=O)c3cncs3)C[C@H]2COCc2cccc(-c3ccc(C(F)(F)F)cc3)n2)C1 [Compound I-34, ((S)-2-((S)-2,2-dimethylcyclopropane-1-carbonyl)-8-(((6-(4-(trifluoromethyl)phenyl)pyridin-2-yl)methoxy)methyl)-2,6-diazaspiro[3.4]octan-6-yl)(thiazol-5-yl)methanone]
IC50 (CDK2/Cyclin E1 [1]): 0.5 to 5 µM | IC50 (CDK2/Cyclin E1 [2]): 0.01 to 0.1 µM | IC50 (Kuramochi cells RB-WT): 5 to 10 µM

CC(OCc1cccc(C2CCOCC2)n1)[C@@H]1CN(C(=O)c2cncs2)CC12CN(C(=O)[C@H]1CC1(C)C)C2 (stereo partly drawn) [Compound I-35, ((S)-2-((S)-2,2-dimethylcyclopropane-1-carbonyl)-8-(1-((6-(tetrahydro-2H-pyran-4-yl)pyridin-2-yl)methoxy)ethyl)-2,6-diazaspiro [3.4]octan-6-yl) (thiazol-5-yl) methanone]
IC50 (CDK2/Cyclin E1 [2]): > 10 µM | IC50 (Kuramochi cells RB-WT): > 10 µM

CC1(C)C[C@@H]1C(=O)N1CC2(CN(C(=O)c3cncs3)C[C@H]2COCc2cccc(-c3ccccc3)n2)C1 [Compound I-36, ((S)-2-((S)-2,2-dimethylcyclopropanecarbonyl)-8-(((6-phenylpyridin-2-yl)methoxy)methyl)-2,6-diazaspiro[3.4]octan-6-yl)(thiazol-5-yl)methanone]
IC50 (CDK2/Cyclin E1 [1]): 5 to 10 µM | IC50 (CDK2/Cyclin E1 [2]): 0.1 to 1 µM | IC50 (Kuramochi cells RB-WT): > 10 µM

CC1(C)C[C@@H]1C(=O)N1CC2(CN(C(=O)c3cncs3)C[C@H]2COCc2ccnn2C2CCCC2)C1 [Compound I-37, ((S)-8-(((1-cyclopentyl-1H-pyrazol-5-yl)methoxy)methyl)-2-((S)-2,2-dimethylcyclopropanecarbonyl)-2,6-diazaspiro[3.4]octan-6-yl)(thiazol-5-yl)methanone]
IC50 (CDK2/Cyclin E1 [2]): > 10 µM | IC50 (Kuramochi cells RB-WT): > 10 µM

CC1(C)C[C@@H]1C(=O)N1CC2(CN(C(=O)c3cncs3)C[C@H]2COCc2ccc(Cl)c(Cl)c2)C1 [Compound I-40, ((S)-8-(((3,4-dichlorobenzyl)oxy)methyl)-2-((S)-2,2-dimethylcyclopropanecarbonyl)-2,6-diazaspiro[3.4]octan-6-yl)(thiazol-5-yl)methanone]
IC50 (CDK2/Cyclin E1 [2]): 1 to 10 µM | IC50 (Kuramochi cells RB-WT): > 10 µM

CC1(C)C[C@@H]1C(=O)N1CC2(CN(C(=O)c3cncs3)C[C@H]2COCc2ccc(C(F)(F)F)cc2)C1 [Compound I-41, ((S)-2-((S)-2,2-dimethylcyclopropane-1-carbonyl)-8-(((4-(trifluoromethyl)benzyl)oxy)methyl)-2,6-diazaspiro[3.4]octan-6-yl)(thiazol-5-yl)methanone]
IC50 (CDK2/Cyclin E1 [2]): 1 to 10 µM | IC50 (Kuramochi cells RB-WT): > 10 µM

CC1(C)C[C@@H]1C(=O)N1CC2(CN(C(=O)c3cncs3)C[C@H]2COCc2cncc(C3CCOCC3)c2)C1 [Compound I-42, ((S)-2-((S)-2,2-dimethylcyclopropane-1-carbonyl)-8-(((5-(tetrahydro-2H-pyran-4-yl)pyridin-3-yl)methoxy)methyl)-2,6-diazaspiro[3.4]octan-6-yl)(thiazol-5-yl)methanone]
IC50 (CDK2/Cyclin E1 [2]): 1 to 10 µM | IC50 (Kuramochi cells RB-WT): > 10 µM

CC1(C)C[C@@H]1C(=O)N1CC2(CN(C(=O)c3cncs3)C[C@H]2COCc2cc(C3CCOCC3)ccn2)C1 [Compound I-43, ((S)-2-((S)-2,2-dimethylcyclopropane-1-carbonyl)-8-(((4-(tetrahydro-2H-pyran-4-yl)pyridin-2-yl)methoxy)methyl)-2,6-diazaspiro[3.4]octan-6-yl)(thiazol-5-yl)methanone]
IC50 (CDK2/Cyclin E1 [2]): 1 to 10 µM | IC50 (Kuramochi cells RB-WT): > 10 µM

CC1(C)C[C@@H]1C(=O)N1CC2(CN(C(=O)c3cncs3)C[C@H]2COCc2cccc(C(F)(F)F)c2)C1 [Compound I-44, ((S)-2-((S)-2,2-dimethylcyclopropanecarbonyl)-8-(((3-(trifluoromethyl)benzyl)oxy)methyl)-2,6-diazaspiro[3.4]octan-6-yl)(thiazol-5-yl)methanone]
IC50 (CDK2/Cyclin E1 [2]): 1 to 10 µM | IC50 (Kuramochi cells RB-WT): > 10 µM

CC1(C)C[C@@H]1C(=O)N1CC2(CN(C(=O)c3cncs3)C[C@H]2COCc2ccnc(C3CCOCC3)c2)C1 [Compound I-45, ((S)-2-((S)-2,2-dimethylcyclopropane-1-carbonyl)-8-(((2-(tetrahydro-2H-pyran-4-yl)pyridin-4-yl)methoxy)methyl)-2,6-diazaspiro[3.4]octan-6-yl)(thiazol-5-yl)methanone]
IC50 (CDK2/Cyclin E1 [2]): > 10 µM | IC50 (Kuramochi cells RB-WT): > 10 µM

CC1(C)C[C@@H]1C(=O)N1CC2(C1)CN(c1cccc3ncsc13)CC2COCc1cccc(C2CCOCC2)n1 (stereo partly shown) [Compound I-46]
IC50 (CDK2/Cyclin E1 [2]): > 10 µM | IC50 (Kuramochi cells RB-WT): > 10 µM

CC1(C)C[C@@H]1C(=O)N1CC2(C1)CN(c1ncnc3ncsc13)CC2COCc1cccc(C2CCOCC2)n1 (stereo partly drawn) [Compound I-47, ((S)-2,2-dimethylcyclopropyl)(8-(((6-(tetrahydro-2H-pyran-4-yl)pyridin-2-yl)methoxy)methyl)-6-(thiazolo[4,5-d]pyrimidin-7-yl)-2,6-diazaspiro[3.4]octan-2-yl)methanone]
IC50 (CDK2/Cyclin E1 [2]): > 10 µM | IC50 (Kuramochi cells RB-WT): > 10 µM

CC1(C)C[C@@H]1C(=O)N1CC2(CN(C(=O)c3cncs3)CC2COCc2cccc(C3=CCOCC3)n2)C1 (stereo partly shown) [Compound I-48]
IC50 (CDK2/Cyclin E1 [2]): 1 to 10 µM | IC50 (Kuramochi cells RB-WT): > 10 µM

CC1(C)C[C@@H]1C(=O)N1CC2(CN(C(=O)c3cncs3)C[C@@H]2COCc2cccc(C3CCOCC3)n2)C1 [Compound I-64, ((R)-2-((S)-2,2-dimethylcyclopropane-1-carbonyl)-8-(((6-(tetrahydro-2H-pyran-4-yl)pyridin-2-yl)methoxy)methyl)-2,6-diazaspiro[3.4]octan-6-yl)(thiazol-5-yl) methanone]
IC50 (CDK2/Cyclin E1 [2]): 1 to 10 µM | IC50 (Kuramochi cells RB-WT): > 10 µM
